Results as given in publication PMC3607609 (PLoS ONE, 2013).
“And” between values parts separate entries of the source, which are not always exact repeats. Equal values may be shown once. “Also recorded” adds a separate entry of the source. Read-outs that look alike come from different tables or passages of the source. Positions of bridges follow the written chain, without caps; N, C: chain ends. Residues, ends and D or L forms follow the SMILES beside them.

Experiments:
[1] = biological target: Cav2.2 expressed in SH-SY5Y membranes (Homo sapiens, UniProt Q00975); test: biochemical; assay type: binding
[2] = biological target: Cav2.2 expressed in rat brain (Rattus norvegicus, UniProt Q02294); test: biochemical; assay type: binding, rat (male Wistar)
[3] = biological target: Cav2.2 expressed in SH-SY5Y whole cell (Homo sapiens, UniProt Q00975); test: cell-based; assay type: binding
[4] = biological target: Cav2.2 channels endogenously expressed in SH-SY5Y cells (Homo sapiens, UniProt Q00975); test: cell-based
α2δ = test system: α2δ; design: method as in PMID 19559597; conditions: cited from earlier work
[5] = test system: resistant KCl-evoked Ca^2+ responses in SH-SY5Y cells; test: cells; assay type: cell-based, human; conditions: for IC50: Homo sapiens, SH-SY5Y, read-out: Ca2+ inhibition IC50, resistant responses
L-type channels = test system: L-type channels; design: method as in PMID 10991994, PMID 7565636; conditions: cited from earlier work
Cav3 = test system: Cav3; design: method as in PMID 10991994, PMID 9481480; conditions: different systems; cited from earlier work
[6] = biological target: Cav1 channels endogenously expressed in SH-SY5Y cells (Homo sapiens, UniProt Q01668); test: Inhibition of KCl-evoked Cav1 Ca2+ responses in presence of CVID, FLIPR-Tetra; assay type: cell-based; conditions: in presence of saturating CVID
[7] = test system: Cav channels endogenously expressed in SH-SY5Y cells; assay type: cell-based, human
[8] = in presence of CVID and nifedipine, agatoxins and SNX 482 up to 10 µM, mibefradil 30 µM

Chain of Cav2.2 expressed in rat brain (Q02294 whole entry, looked up): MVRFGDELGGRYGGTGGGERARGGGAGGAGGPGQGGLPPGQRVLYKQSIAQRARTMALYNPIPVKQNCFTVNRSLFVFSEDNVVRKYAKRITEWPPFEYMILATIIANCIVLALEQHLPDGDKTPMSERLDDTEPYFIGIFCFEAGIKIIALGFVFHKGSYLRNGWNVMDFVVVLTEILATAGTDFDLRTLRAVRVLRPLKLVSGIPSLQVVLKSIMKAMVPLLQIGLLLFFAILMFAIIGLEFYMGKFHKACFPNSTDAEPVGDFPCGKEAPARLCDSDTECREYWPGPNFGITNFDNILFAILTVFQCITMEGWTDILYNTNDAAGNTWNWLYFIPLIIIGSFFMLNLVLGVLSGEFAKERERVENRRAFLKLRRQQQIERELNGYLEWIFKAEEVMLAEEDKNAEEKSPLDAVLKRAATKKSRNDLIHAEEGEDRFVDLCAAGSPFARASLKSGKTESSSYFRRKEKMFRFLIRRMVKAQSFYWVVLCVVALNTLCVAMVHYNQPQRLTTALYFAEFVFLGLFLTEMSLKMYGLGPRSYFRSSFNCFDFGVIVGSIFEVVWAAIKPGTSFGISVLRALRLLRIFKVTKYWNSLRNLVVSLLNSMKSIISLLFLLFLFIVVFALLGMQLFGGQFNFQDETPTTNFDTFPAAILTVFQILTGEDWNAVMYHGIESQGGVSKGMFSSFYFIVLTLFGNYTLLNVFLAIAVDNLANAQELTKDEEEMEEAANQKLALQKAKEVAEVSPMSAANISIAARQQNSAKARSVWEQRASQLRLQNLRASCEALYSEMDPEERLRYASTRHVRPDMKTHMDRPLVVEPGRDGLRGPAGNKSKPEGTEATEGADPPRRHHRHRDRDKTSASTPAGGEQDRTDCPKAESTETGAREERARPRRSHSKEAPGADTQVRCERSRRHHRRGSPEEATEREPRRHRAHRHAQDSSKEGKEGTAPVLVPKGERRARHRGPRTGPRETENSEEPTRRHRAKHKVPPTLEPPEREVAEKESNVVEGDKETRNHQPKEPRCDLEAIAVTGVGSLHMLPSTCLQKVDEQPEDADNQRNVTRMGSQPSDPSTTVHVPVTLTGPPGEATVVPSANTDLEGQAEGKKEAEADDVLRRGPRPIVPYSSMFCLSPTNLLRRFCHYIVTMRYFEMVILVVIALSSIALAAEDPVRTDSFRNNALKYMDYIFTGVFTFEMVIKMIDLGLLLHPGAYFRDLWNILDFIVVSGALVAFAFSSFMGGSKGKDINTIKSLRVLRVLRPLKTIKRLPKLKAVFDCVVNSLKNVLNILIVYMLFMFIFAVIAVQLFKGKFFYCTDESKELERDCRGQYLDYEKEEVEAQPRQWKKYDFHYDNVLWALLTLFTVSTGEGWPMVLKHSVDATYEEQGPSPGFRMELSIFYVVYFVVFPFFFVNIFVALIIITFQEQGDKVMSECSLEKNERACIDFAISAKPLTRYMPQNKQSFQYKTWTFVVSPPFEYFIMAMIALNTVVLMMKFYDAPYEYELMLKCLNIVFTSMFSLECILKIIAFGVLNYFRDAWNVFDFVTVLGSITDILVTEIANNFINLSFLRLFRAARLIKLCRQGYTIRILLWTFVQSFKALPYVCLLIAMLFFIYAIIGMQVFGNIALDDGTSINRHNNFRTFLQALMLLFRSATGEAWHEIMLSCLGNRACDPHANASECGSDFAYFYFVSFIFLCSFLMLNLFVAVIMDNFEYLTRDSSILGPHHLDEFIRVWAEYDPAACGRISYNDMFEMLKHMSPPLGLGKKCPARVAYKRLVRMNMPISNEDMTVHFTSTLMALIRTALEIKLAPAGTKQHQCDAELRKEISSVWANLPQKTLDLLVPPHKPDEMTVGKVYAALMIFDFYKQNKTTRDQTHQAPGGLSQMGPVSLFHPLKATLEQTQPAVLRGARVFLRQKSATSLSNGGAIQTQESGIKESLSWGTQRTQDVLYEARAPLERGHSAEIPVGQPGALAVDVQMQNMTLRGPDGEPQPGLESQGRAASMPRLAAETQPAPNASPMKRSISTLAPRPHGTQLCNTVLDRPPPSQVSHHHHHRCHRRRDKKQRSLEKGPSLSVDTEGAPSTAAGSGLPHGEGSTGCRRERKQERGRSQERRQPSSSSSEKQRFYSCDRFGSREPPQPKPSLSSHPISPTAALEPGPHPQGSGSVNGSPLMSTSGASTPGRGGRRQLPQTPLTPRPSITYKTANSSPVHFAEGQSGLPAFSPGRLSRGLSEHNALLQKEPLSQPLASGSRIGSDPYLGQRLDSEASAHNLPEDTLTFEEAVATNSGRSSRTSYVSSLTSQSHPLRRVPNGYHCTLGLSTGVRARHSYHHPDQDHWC
Chain of Cav2.2 expressed in SH-SY5Y whole cell (Q00975 whole entry, looked up): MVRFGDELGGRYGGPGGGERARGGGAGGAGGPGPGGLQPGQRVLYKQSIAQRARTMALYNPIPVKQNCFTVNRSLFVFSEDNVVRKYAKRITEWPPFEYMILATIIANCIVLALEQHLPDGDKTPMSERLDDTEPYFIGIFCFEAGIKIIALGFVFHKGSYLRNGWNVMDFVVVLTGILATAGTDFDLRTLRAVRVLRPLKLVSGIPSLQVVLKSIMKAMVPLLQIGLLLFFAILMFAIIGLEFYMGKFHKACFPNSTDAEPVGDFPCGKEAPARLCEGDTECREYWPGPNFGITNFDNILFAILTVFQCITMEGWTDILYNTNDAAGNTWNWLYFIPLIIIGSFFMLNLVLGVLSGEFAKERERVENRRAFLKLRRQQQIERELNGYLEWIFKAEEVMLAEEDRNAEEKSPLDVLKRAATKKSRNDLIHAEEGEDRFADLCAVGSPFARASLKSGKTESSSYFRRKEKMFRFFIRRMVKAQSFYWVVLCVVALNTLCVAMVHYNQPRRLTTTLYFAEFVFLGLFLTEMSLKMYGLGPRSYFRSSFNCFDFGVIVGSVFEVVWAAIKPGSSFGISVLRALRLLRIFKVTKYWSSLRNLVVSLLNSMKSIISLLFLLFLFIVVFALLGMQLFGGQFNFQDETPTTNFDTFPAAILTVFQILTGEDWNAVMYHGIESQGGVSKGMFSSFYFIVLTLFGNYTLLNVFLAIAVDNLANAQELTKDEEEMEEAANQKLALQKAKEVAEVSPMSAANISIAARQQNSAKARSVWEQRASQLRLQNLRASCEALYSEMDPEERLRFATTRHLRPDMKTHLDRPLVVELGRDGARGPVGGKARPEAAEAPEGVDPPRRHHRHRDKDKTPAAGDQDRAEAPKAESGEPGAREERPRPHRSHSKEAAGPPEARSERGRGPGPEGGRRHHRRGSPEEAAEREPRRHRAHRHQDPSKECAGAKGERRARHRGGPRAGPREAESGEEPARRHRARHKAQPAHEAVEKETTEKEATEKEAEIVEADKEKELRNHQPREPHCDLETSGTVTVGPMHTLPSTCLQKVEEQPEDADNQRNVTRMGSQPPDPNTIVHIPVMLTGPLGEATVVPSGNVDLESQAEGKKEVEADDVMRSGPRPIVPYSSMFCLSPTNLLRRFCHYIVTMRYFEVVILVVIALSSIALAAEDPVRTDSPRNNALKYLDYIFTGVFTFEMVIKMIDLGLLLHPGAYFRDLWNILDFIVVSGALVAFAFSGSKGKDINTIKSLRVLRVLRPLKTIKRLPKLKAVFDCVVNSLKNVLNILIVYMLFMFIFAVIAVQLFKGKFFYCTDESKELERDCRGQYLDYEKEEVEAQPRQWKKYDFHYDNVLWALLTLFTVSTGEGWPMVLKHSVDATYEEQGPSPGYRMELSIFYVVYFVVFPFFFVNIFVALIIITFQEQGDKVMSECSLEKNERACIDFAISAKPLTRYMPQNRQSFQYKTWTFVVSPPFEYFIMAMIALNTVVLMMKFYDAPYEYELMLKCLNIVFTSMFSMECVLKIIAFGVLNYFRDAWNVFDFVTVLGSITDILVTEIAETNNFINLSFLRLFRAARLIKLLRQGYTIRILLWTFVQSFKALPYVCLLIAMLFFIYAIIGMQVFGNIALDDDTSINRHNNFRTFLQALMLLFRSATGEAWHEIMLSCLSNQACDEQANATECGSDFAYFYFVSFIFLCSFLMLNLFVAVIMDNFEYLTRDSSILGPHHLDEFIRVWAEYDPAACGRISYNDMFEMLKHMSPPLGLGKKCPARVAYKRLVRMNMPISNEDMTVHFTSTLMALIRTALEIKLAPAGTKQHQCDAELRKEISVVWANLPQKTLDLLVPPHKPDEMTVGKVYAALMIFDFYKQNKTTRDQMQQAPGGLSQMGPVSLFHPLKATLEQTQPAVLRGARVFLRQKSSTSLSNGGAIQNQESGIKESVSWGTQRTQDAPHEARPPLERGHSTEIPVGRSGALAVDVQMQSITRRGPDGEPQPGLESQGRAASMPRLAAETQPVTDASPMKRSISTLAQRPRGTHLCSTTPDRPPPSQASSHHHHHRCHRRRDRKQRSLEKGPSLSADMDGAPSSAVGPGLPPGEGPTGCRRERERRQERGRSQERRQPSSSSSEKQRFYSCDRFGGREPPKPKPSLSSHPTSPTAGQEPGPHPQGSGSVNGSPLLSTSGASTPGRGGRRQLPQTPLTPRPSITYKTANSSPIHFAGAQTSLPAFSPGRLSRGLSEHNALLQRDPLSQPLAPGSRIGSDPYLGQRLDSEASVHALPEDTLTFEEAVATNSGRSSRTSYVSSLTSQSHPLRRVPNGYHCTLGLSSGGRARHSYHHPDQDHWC
Chain of Cav2.2 expressed in SH-SY5Y membranes (Q00975 whole entry, looked up): as above
Chain of Cav2.2 channels endogenously expressed in SH-SY5Y cells (Q00975 whole entry, looked up): as above

CSCC[C@@H]1NC(=O)[C@H](CC(C)C)NC(=O)[C@H](CCCCN)NC(=O)[C@H](CO)NC(=O)[C@@H]2CSSC[C@@H]3NC(=O)[C@H](CO)NC(=O)CNC(=O)[C@H](CO)NC(=O)[C@H](CSSC[C@H](N)C(=O)N[C@@H](CCCCN)C(=O)N[C@@H](CO)C(=O)N[C@@H](CCCCN)C(=O)NCC(=O)N[C@@H](C)C(=O)N[C@@H](CCCCN)C(=O)N2)NC(=O)[C@H](CSSC[C@@H](C(N)=O)NC(=O)[C@H](CCCNC(=N)N)NC(=O)CNC(=O)[C@H](C(C)C)NC(=O)[C@H]([C@@H](C)O)NC(=O)CNC(=O)[C@H](CO)NC3=O)NC(=O)[C@H](CC(=O)O)NC(=O)[C@H](Cc2ccc(O)cc2)NC1=O [CVID] (H-CKSKGAKCSKLMYDCCSGSCSGTVGRC-NH2; disulfide 1-16, 8-20, 15-27)
IC50 [1]: 0.00309 nM
IC50 [2]: 0.0295 nM
Kd [3]: 0.0032 ± 0.0002 µM
IC50 [4]: 0.16 ± 0.025 µM

C[C@@H](O)[C@@H]1NC(=O)[C@H](Cc2ccc(O)cc2)NC(=O)[C@@H]2C[C@@H](O)CN2C(=O)[C@H](CC(N)=O)NC(=O)[C@@H]2CSSC[C@@H]3NC(=O)[C@H](CO)NC(=O)[C@H](CO)NC(=O)CNC(=O)[C@@H]4C[C@@H](O)CN4C(=O)[C@H](CO)NC(=O)[C@H](CCCCN)NC(=O)[C@@H](N)CSSC[C@H](NC(=O)[C@H](CSSC[C@@H](C(=O)N[C@@H](Cc4ccc(O)cc4)C(N)=O)NC(=O)[C@H](CCCN=C(N)N)NC(=O)[C@H](CCCCN)NC1=O)NC(=O)[C@H](CC(N)=O)NC(=O)[C@H](Cc1ccc(O)cc1)NC(=O)[C@H](CO)NC(=O)[C@H]([C@@H](C)O)NC(=O)[C@@H]1C[C@@H](O)CN1C(=O)[C@H](CO)NC3=O)C(=O)N[C@@H](CCCN=C(N)N)C(=O)N[C@@H](CO)C(=O)N2 [GVIA]
IC50 [1]: 0.0282 nM
IC50 [2]: 0.0372 nM
Kd [3]: 0.00027 ± 8.4e-05 µM
IC50 [4]: 0.15 ± 0.09 µM

NCC1(CC(=O)O)CCCCC1 [gabapentin]
Effect of α2δ binding on Cav2.2 trafficking and pain (in words) (α2δ): reducing Cav2.2 trafficking and the symptoms of pain

COCC(=O)O[C@]1(CCN(C)CCCc2nc3ccccc3[nH]2)CCc2cc(F)ccc2[C@@H]1C(C)C [mibefradil]
IC50 [5]: 3 ± 0.031 µM
Effect on resistant KCl-evoked Ca2+ responses (in words) [5, 8]: fully inhibited these remaining responses; also recorded: completely abolished
Inhibition of L-type channels (in words) (L-type channels): also inhibit L-type channels
Inhibition of Cav3 responses (in words) (Cav3): weak affinity

COC(=O)C1=C(C)NC(C)=C(C(=O)OC)C1c1ccccc1[N+](=O)[O-] [nifedipine]
Block of L-type KCl responses (in words) [6]: concentration-dependently blocked KCl responses

O=c1[nH]c2ccccc2n1C1CCN(CCCC(c2ccc(F)cc2)c2ccc(F)cc2)CC1 [pimozide]
IC50 [5]: 1.3 ± 0.097 µM
Effect on resistant KCl-evoked Ca2+ responses (in words) [5, 8]: fully inhibited the remaining responses; also recorded: completely abolished
Inhibition of L-type channels (in words) (L-type channels): also inhibit L-type channels

KCl
Hill slope [7]: 2.5 and 2.9 and 3.5
KCl-evoked Ca2+ response (in words) [7]: evoked a large transient response; also recorded: elicits maximal Cav1 and Cav2.2 responses
pEC50 for KCl-mediated stimulation [7]: 1.69±0.12
EC50 ([7]; read-out: Ca2+ stimulation EC50): 17300 ± 3410 µM

SNX 482
Ca2+ inhibition IC50, resistant responses [5]: NDR
Effect on resistant KCl-evoked Ca2+ responses (in words) [5]: no significant inhibitory effect; also recorded: not blocked

ω-agatoxin
Effect on resistant KCl-evoked Ca2+ responses (in words) [5]: not blocked

ω-agatoxin IVA
Effect on resistant KCl-evoked Ca2+ responses (in words) [5]: did not significantly affect KCl-evoked Ca^2+ responses
